Read-outs that look alike come from different tables or passages of the source.
Experiments:
ADR2C = biological target: T1, ADR2C (Homo sapiens, UniProt P18825); assay: Binding assay ADR2C; settings: 100 nM
T1 construct: Eurofins Cerep (external service)
T1 sequence (P18825 1-462): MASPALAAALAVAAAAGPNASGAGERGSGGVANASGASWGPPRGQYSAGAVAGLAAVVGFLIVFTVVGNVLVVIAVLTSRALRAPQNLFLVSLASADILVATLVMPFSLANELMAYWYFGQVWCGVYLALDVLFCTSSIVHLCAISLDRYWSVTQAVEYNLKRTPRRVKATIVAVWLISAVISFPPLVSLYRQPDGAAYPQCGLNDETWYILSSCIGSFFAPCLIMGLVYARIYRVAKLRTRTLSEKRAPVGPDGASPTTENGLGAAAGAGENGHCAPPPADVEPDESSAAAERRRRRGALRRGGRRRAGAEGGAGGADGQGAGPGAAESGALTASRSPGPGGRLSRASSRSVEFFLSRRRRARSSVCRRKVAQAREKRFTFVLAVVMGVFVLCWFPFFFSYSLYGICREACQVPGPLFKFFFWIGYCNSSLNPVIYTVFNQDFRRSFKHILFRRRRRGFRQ

AT1 = biological target: T2, AT1 (Homo sapiens, UniProt P30556); assay: Binding assay AT1; settings: 100 nM
T2 construct: Eurofins Cerep (external service)
T2 sequence (P30556 1-359): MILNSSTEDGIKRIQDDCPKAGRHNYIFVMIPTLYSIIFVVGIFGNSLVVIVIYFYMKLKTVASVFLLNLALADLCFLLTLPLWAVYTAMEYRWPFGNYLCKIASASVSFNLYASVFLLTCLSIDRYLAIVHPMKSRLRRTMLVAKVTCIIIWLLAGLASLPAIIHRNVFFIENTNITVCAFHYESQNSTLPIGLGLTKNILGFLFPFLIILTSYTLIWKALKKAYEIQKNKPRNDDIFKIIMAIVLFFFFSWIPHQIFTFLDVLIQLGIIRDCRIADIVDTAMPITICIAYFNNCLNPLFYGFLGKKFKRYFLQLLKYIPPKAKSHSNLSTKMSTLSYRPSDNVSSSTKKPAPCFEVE

ADR1 = biological target: T3, ADR1 (Homo sapiens, UniProt P08588); assay: Binding assay ADR1 (reference atenolol); settings: 100 nM
T3 construct: Eurofins Cerep (external service)
T3 sequence (P08588 whole entry): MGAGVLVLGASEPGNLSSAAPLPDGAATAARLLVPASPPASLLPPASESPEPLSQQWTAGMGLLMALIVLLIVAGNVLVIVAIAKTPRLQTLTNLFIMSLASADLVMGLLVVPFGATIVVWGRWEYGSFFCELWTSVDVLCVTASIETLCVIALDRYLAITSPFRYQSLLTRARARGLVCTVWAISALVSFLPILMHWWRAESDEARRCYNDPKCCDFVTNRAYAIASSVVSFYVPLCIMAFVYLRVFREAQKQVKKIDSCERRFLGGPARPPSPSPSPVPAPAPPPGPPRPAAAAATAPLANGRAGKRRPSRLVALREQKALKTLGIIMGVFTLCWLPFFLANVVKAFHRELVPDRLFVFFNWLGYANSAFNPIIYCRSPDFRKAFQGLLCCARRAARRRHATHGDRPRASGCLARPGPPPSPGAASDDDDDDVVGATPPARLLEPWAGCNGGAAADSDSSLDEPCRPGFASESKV

CysLT1 = biological target: T4, CysLT1 (Homo sapiens, UniProt Q9Y271); assay: Binding assay CysLT1; settings: 100 nM
T4 construct: Eurofins Cerep (external service)
T4 sequence (Q9Y271 1-337): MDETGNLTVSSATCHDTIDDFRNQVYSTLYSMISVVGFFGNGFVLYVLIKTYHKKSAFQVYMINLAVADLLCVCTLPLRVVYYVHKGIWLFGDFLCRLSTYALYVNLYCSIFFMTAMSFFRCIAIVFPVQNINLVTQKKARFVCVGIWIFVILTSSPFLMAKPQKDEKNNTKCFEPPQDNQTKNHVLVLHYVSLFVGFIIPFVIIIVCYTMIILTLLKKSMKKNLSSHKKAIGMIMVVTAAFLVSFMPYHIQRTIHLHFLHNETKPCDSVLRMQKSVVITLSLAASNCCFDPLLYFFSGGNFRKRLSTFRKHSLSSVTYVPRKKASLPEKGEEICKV

CCR3 = biological target: T5, CCR3 (Homo sapiens, UniProt P51677); assay: Cellular functional assay CCR3
T5 sequence (P51677 1-355): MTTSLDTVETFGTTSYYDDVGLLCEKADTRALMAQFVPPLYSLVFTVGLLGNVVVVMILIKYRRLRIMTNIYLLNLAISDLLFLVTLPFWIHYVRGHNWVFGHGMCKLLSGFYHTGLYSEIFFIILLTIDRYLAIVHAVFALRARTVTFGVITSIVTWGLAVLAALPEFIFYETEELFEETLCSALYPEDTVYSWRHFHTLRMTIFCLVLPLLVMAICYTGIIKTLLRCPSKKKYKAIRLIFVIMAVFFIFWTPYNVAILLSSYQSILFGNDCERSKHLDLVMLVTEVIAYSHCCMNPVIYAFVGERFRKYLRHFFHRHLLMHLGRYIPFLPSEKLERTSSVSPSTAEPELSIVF

ADR1A = biological target: T6, ADR1A (Homo sapiens, UniProt P35348); assay: Binding assay ADR1A; settings: 100 nM
T6 construct: Eurofins Cerep (external service)
T6 sequence (P35348 1-466): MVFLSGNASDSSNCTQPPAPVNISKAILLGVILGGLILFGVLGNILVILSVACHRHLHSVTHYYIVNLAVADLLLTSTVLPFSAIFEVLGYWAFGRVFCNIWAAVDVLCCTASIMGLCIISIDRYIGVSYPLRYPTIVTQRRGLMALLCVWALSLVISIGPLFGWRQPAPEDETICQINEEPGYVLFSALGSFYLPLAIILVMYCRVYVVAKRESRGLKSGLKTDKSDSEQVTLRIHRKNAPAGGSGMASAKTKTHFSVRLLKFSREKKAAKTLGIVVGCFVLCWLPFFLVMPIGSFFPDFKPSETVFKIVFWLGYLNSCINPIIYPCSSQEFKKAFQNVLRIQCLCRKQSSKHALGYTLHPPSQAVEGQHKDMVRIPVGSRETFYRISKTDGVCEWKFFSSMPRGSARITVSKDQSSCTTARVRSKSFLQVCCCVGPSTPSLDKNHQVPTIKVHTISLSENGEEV

[1] = mean of 2, read-out: % Of control specific binding, Mean
[2] = read-out: % Inhibition of control specific binding
[3] = single replicates 1 and 2, 0.1 µM
[4] = single replicates 1 and 2, read-out: % Of control specific binding

Structure (SMILES): Cc1ccc(-c2nnc(SCC(=O)Nc3nccs3)[nH]2)cc1 [Compound 9]
- remaining activity at 0.1 µM (ADR2C; [1]): 109%
- inhibition at 0.1 µM (ADR2C; [2]): -9%
- % Of control specific binding (ADR2C; [3]): 108.4%
- remaining activity at 0.1 µM (ADR2C; [4]): 109%
- remaining activity at 0.1 µM (AT1; [1]): 110%
- inhibition at 0.1 µM (AT1; [2]): -10%
- % Of control specific binding (AT1; [3]): 108.6%
- remaining activity at 0.1 µM (AT1; [4]): 112%
- remaining activity at 0.1 µM (ADR1; [1]): 91.5%
- inhibition at 0.1 µM (ADR1; [2]): 9%
- % Of control specific binding (ADR1; [3]): 88.9%
- remaining activity at 0.1 µM (ADR1; [4]): 94%
- remaining activity at 0.1 µM (CysLT1; [1]): 97.6%
- inhibition at 0.1 µM (CysLT1; [2]): 2%
- % Of control specific binding (CysLT1; [3]): 105.4%
- remaining activity at 0.1 µM (CysLT1; [4]): 89.7%
- Agonist Response (% of Control) (CCR3; antagonist effect, 100 nM, single replicates 1st and 2nd, 0.1 µM): 121.2%
- inhibition at 0.1 µM (CCR3; read-out: % Inhibition of control agonist response): -0.9%
- activity at 0.1 µM (CCR3; read-out: Agonist Response (% of Control), Mean, antagonist effect, 100 nM, mean of 2): 118%
- activity at 0.1 µM (CCR3; read-out: Agonist Response (% of Control), antagonist effect, 100 nM, single replicates 1st and 2nd): 116%
- remaining activity at 0.1 µM (ADR1A; [1]): 112%
- % Of control specific binding (ADR1A; [3]): 108.1%
- remaining activity at 0.1 µM (ADR1A; [4]): 117%

— article PMC7176092, “Development of the first in vivo GPR17 ligand through an iterative drug discovery pipeline: A novel disease-modifying strategy for multiple sclerosis” (PLoS ONE, 2020)
